# Measured values taken from US9340547B2, “Pyrrolotriazinone derivatives as inhibitors P13K” (Almirall, S.A., priority 2011, dated 2016).
# Target: T1, PI3Kδ (PI3 Kd) (Homo sapiens, UniProt O00329)
# T1 construct: purchased Millipore
# Experiment: PI3K HTRF enzymatic inhibition assay (cell-free), PI3Kd
# Format: biochemical
# Conditions: not given
# Experimental: PI3K α, β, δ and γ Enzymatic Inhibition Assays
# Compounds were screened for their ability to inhibit PI3Kα (PI3Kα), PI3Kβ (PI3 Kb), PI3Kδ (PI3 Kd) and PI3Kγ (PI3 Kg) using a cell-free based PI3K HTRF™ assay (Millipore, ref. #33-017) All reagents to perform the reactions were prepared according to the manufacturer protocol. All PI3K enzymes were recombinant and were purchased at Millipore.
# These concentrations were final in the assay. • 3) A reservoir plate containing Adenosine TriPhosphate (ATP) diluted in the Millipore kit buffer was prepared for each isoform. […] Incubation was done for 8 minutes (for all four isoforms) then the reaction was stopped by addition of the Stop solution. The Detection solution was added. These solutions were prepared previously according to the kit specifications.
# T1 sequence (O00329 whole entry): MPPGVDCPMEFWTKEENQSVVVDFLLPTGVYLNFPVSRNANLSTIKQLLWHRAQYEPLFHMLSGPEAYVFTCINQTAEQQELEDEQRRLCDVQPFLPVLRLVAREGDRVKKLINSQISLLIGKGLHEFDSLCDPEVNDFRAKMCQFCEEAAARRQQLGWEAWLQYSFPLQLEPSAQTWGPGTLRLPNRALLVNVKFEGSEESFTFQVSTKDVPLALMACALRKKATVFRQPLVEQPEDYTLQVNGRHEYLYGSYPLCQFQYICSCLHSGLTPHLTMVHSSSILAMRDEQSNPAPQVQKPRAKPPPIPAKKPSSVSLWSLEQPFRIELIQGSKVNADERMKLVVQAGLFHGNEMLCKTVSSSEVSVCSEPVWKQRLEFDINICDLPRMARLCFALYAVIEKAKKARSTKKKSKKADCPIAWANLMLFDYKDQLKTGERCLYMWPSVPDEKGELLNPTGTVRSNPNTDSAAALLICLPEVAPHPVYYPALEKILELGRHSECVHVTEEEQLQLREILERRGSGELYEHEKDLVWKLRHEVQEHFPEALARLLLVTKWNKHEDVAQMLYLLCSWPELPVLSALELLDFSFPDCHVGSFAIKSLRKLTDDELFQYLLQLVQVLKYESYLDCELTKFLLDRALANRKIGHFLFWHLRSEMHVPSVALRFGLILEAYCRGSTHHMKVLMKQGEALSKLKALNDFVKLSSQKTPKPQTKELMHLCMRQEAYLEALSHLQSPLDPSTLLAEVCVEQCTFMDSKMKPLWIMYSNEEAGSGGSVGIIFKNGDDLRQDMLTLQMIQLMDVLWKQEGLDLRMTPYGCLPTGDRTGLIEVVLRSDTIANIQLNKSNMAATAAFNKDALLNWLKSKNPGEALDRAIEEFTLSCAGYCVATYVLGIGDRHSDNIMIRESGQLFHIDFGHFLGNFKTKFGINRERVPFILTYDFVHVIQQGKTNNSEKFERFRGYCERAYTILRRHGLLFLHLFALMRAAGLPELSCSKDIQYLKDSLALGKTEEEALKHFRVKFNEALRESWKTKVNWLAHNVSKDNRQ
# T1 sequence (P27986 whole entry partner): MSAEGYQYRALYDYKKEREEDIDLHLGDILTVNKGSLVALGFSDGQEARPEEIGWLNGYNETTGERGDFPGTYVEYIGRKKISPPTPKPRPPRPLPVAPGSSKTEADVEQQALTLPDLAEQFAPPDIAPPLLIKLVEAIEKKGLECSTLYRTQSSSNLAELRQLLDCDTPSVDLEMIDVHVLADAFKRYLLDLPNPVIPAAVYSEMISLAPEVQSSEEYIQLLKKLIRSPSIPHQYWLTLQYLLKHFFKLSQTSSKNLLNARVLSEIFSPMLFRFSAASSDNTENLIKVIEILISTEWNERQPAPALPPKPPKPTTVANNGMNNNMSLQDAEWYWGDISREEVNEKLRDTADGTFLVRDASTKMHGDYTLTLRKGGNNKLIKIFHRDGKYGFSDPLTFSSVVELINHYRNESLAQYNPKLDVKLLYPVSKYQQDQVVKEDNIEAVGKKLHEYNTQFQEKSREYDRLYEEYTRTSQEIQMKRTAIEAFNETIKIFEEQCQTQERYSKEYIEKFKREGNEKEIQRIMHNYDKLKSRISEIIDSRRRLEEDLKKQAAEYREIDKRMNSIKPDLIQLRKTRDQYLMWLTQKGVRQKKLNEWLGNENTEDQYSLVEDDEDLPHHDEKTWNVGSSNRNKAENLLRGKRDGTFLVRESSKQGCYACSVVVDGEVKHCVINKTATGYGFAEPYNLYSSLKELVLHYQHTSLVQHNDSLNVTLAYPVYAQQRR
row,Compound,IC50 [nM]
1,"C[C@H](Nc1ncnc2[nH]cnc12)c1nn2ccc(C#N)c2c(=O)n1-c1ccccc1 [Example 61, (S)-2-(1-(9H-Purin-6-ylamino)ethyl)-4-oxo-3-phenyl-3,4-dihydropyrrolo[1,2-f][1,2,4]triazine-5-carbonitrile]",6
2,"C[C@H](Nc1ncnc(N)c1C#N)c1nn2cccc2c(=O)n1-c1ccccn1 [Example 43, (S)-4-Amino-6-(1-(4-oxo-3-(pyridin-2-yl)-3,4-dihydropyrrolo[1,2-f][1,2,4]triazin-2-yl)ethylamino)pyrimidine-5-carbonitrile]",11
3,"C[C@H](Nc1ncnc(N)c1C#N)c1nn2ccc(CCO)c2c(=O)n1-c1ccccc1 [Example 159, (S)-4-Amino-6-(1-(5-(2-hydroxyethyl)-4-oxo-3-phenyl-3,4-dihydropyrrolo[1,2-f][1,2,4]triazin-2-yl)ethylamino)pyrimidine-5-carbonitrile]",35
4,"Cc1ccccc1-n1c(Cn2cnc3c(N)ncnc32)nn2ccc(Cl)c2c1=O [Example 1, 2-((6-Amino-9H-purin-9-yl)methyl)-5-chloro-3-o-tolylpyrrolo[1,2-f][1,2,4]triazin-4(3H)-one]",120
5,"C[C@H](Nc1nc(N)nc2[nH]cnc12)c1nn2ccnc2c(=O)n1-c1ccccc1 [Example 64, (S)-2-(1-(2-Amino-9H-purin-6-ylamino)ethyl)-3-phenylimidazo[1,2-f][1,2,4]triazin-4(3H)-one]",69
6,"C[C@H](Nc1ccnc2ccnn12)c1nn2cccc2c(=O)n1-c1ccccc1 [Example 54, (S)-3-Phenyl-2-(1-(pyrazolo[1,5-a]pyrimidin-7-ylamino)ethyl)pyrrolo[1,2-f][1,2,4]triazin-4(3H)-one]",60
7,"Cc1ccccc1-n1c(Cn2cnc3c(N)ncnc32)nn2ccc(C(F)(F)F)c2c1=O [Example 25, 2-((6-Amino-9H-purin-9-yl)methyl)-3-o-tolyl-5-(trifluoromethyl)pyrrolo[1,2-f][1,2,4]triazin-4(3H)-one]",347
8,"C[C@H](Nc1ncnc(N)c1F)c1nn2ccc(C(F)F)c2c(=O)n1-c1cc(F)cc(F)c1 [Example 102, (S)-2-(1-(6-Amino-5-fluoropyrimidin-4-ylamino)ethyl)-5-(difluoromethyl)-3-(3,5-difluorophenyl)pyrrolo[1,2-f][1,2,4]triazin-4(3H)-one]",42
9,"Cc1ccccc1-n1c(Cn2cnc3c(N)ncnc32)nn2ccnc2c1=O [Example 31, 2-((6-amino-9H-purin-9-yl)methyl)-3-o-tolylimidazo[1,2-f][1,2,4]triazin-4(3H)-one]",6570
10,"Nc1nc(N2CCC[C@H]2c2nn3cccc3c(=O)n2-c2ccccc2)c2nc[nH]c2n1 [Example 56, (S)-2-(1-(2-Amino-9H-purin-6-yl)pyrrolidin-2-yl)-3-phenyl pyrrolo[1,2-f][1,2,4]triazin-4(3H)-one]",15
11,"C[C@H](Nc1ncnc(N)c1C#N)c1nn2ccc(C#N)c2c(=O)n1C1CCCOC1 (single isomer, unassigned) [Example 129]",38
12,"Cc1ccccc1-n1c(CNc2ncnc(N)c2C#N)nn2cccc2c1=O [Example 158, 4-Amino-6-((4-oxo-3-o-tolyl-3,4-dihydropyrrolo[1,2-f][1,2,4]triazin-2-yl)methylamino)pyrimidine-5-carbonitrile]",43
13,"C[C@H](Nc1ncnc(N)c1C#N)c1nn2ccc(Br)c2c(=O)n1-c1cccc(C(F)(F)F)c1 [Example 169, (S)-4-Amino-6-(1-(5-bromo-4-oxo-3-(3-(trifluoromethyl)phenyl)-3,4-dihydropyrrolo[1,2-f][1,2,4]triazin-2-yl)ethylamino)pyrimidine-5-carbonitrile]",6
14,"C[C@H](Nc1ncnc2[nH]cnc12)c1nn2ccc(C(F)(F)F)c2c(=O)n1-c1cc(F)cc(F)c1 [Example 90, (S)-2-(1-(9H-Purin-6-ylamino)ethyl)-3-(3,5-difluorophenyl)-5-(trifluoromethyl)pyrrolo[1,2-f][1,2,4]triazin-4(3H)-one]",7
15,"CC[C@H](Nc1ncnc2[nH]cnc12)c1nn2cccc2c(=O)n1-c1ccccc1 [Example 15, (S)-2-(1-(9H-Purin-6-ylamino)propyl)-3-phenylpyrrolo[1,2-f][1,2,4]triazin-4(3H)-one]",18
16,"Cc1nc(-c2ccn3nc([C@H](C)Nc4ncnc5[nH]cnc45)n(-c4cc(F)cc(F)c4)c(=O)c23)no1 [Example 125, (S)-2-(1-(9H-Purin-6-ylamino)ethyl)-3-(3,5-difluorophenyl)-5-(5-methyl-1,2,4-oxadiazol-3-yl)pyrrolo[1,2-f][1,2,4]triazin-4(3H)-one]",90
17,"CCCNC(=O)c1ccn2nc([C@H](C)Nc3ncnc(N)c3C#N)n(-c3ccccc3)c(=O)c12 [Example 152, (S)-2-(1-(6-Amino-5-cyanopyrimidin-4-ylamino)ethyl)-4-oxo-3-phenyl-N-propyl-3,4-dihydropyrrolo[1,2-f][1,2,4]triazine-5-carboxamide]",747

row,Compound,IC50 [nM]
1,"N#Cc1c(N)ncnc1N[C@@H](CCO)c1nn2cccc2c(=O)[nH]1 [Example 165, (S)-4-Amino-6-(3-hydroxy-1-(4-oxo-3,4-dihydropyrrolo[1,2-f][1,2,4]triazin-2-yl)propylamino)pyrimidine-5-carbonitrile]",670
2,"C[C@H](Nc1ncnc(N)c1C#N)c1nn2ccc(Br)c2c(=O)[nH]1 [Example 142, (S)-4-Amino-6-(1-(5-bromo-4-oxo-3,4-dihydropyrrolo[1,2-f][1,2,4]triazin-2-yl)ethylamino)pyrimidine-5-carbonitrile]",5
3,"C[C@H](Nc1ncnc(N)c1C#N)c1nn2ccnc2c(=O)n1-c1ccccc1 [Example 50, (S)-4-amino-6-(1-(4-oxo-3-phenyl-3,4-dihydroimidazo[1,2-f][1,2,4]triazin-2-yl)ethylamino)pyrimidine-5-carbonitrile]",57
4,"C[C@H](Nc1nc(N)nc2[nH]cnc12)c1nn2cccc2c(=O)n1-c1ccccc1 [Example 21, (S)-2-(1-(2-Amino-9H-purin-6-ylamino)ethyl)-3-phenylpyrrolo[1,2-f][1,2,4]triazin-4(3H)-one]",5
5,"N#Cc1c(N)ncnc1N[C@@H](CO)c1nn2cccc2c(=O)n1-c1cc(F)cc(F)c1 [Example 157, (R)-4-Amino-6-(1-(3-(3,5-difluorophenyl)-4-oxo-3,4-dihydropyrrolo[1,2-f][1,2,4]triazin-2-yl)-2-hydroxyethylamino)pyrimidine-5-carbonitrile]",66
6,C[C@H](Nc1ncnc(N)c1C#N)c1nn2cccc2c(=O)n1-c1cccc(O)c1 [Example 179],7
7,Nc1ncnc2c1ncn2Cc1nn2ccc(Cl)c2c(=O)n1Cc1ccccc1 [Example 29],376
8,"C[C@H](Nc1ncnc2[nH]cc(F)c12)c1nn2cccc2c(=O)n1-c1ccccc1 [Example 81, (S)-2-(1-(5-Fluoro-7H-pyrrolo[2,3-d]pyrimidin-4-ylamino)ethyl)-3-phenylpyrrolo[1,2-f][1,2,4]triazin-4(3H)-one]",9
9,"CCCOC(=O)c1ccn2nc(C(C)Nc3ncnc(N)c3C#N)n(-c3ccccc3)c(=O)c12 [Example 164, (S)-Propyl 2-(1-(6-amino-5-cyanopyrimidin-4-ylamino)ethyl)-4-oxo-3-phenyl-3,4-dihydropyrrolo[1,2-f][1,2,4]triazine-5-carboxylate]",67
10,"C[C@H](Nc1ncnc(N)c1C#N)c1nn2ccc(C(F)(F)F)c2c(=O)n1C1CCCOC1 (single isomer, unassigned) [Example 133]",11
11,"C[C@H](Nc1ncnc2[nH]cnc12)c1nn2cccc2c(=O)n1-c1ccccc1 [Example 20, (S)-2-(1-(9H-Purin-6-ylamino)ethyl)-3-phenylpyrrolo[1,2-f][1,2,4]triazin-4(3H)-one]",11
12,"C[C@H](Nc1ncnc(N)c1C#N)c1nn2ccc(CN3CCOCC3)c2c(=O)n1-c1ccccc1 [Example 122, (S)-4-Amino-6-(1-(5-(morpholinomethyl)-4-oxo-3-phenyl-3,4-dihydropyrrolo[1,2-f][1,2,4]triazin-2-yl)ethylamino)pyrimidine-5-carbonitrile]",2930
13,"Cc1ccc2c(=O)n(-c3ccccc3)c([C@H](C)Nc3ncnc(N)c3C#N)nn12 [Example 71, (S)-4-Amino-6-(1-(7-methyl-4-oxo-3-phenyl-3,4-dihydropyrrolo[1,2-f][1,2,4]triazin-2-yl)ethylamino)pyrimidine-5-carbonitrile]",9
14,"C[C@H](Nc1ncnc(N)c1C#N)c1nn2ccc(C(F)F)c2c(=O)n1-c1ccccc1 [Example 47, (S)-4-Amino-6-(1-(5-(difluoromethyl)-4-oxo-3-phenyl-3,4-dihydropyrrolo[1,2-f][1,2,4]triazin-2-yl)ethylamino)pyrimidine-5-carbonitrile]",1
15,"C[C@H](Nc1ncnc(N)c1C#N)c1nn2cccc2c(=O)n1C1CCC1 [Example 138, (S)-4-Amino-6-(1-(3-cyclobutyl-4-oxo-3,4-dihydropyrrolo[1,2-f][1,2,4]triazin-2-yl)ethylamino)pyrimidine-5-carbonitrile]",8
16,"Cc1ccn2nc([C@H](C)Nc3ncnc4[nH]cnc34)n(-c3ccccc3)c(=O)c12 [Example 68, (S)-2-(1-(9H-Purin-6-ylamino)ethyl)-5-methyl-3-phenyl pyrrolo[1,2-f][1,2,4]triazin-4(3H)-one]",1

# Same assay, conditions: recombinant PI3 Kd 0.60 nM, PIP2 2 μM, ATP 20 μM, 8 min incubation
row,Compound,IC50 [nM]
1,"Cc1ccccc1-n1c(CSc2ncnc3[nH]cnc23)nn2ccc(C)c2c1=O [Example 11, 2-((9H-Purin-6-ylthio)methyl)-5-methyl-3-o-tolylpyrrolo[1,2-f][1,2,4]triazin-4(3H)-one]",119
